Laboratory results: PubChem BioAssay (NCI)
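Five compound concentrations were applied to cells in 96-well plates for 48 hours; endpoints were derived by simple linear interpolation of the resulting dose-response curve. TGI is the concentration that stops growth completely.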

How the values were obtained:
Assay in all cases: growth of human tumour cells (NCI), 48 h
A498 renal = tested on: A498 renal
HCT-15 colon = tested on: HCT-15 colon
HOP-62 NSCLC = tested on: HOP-62 NSCLC
HOP-92 NSCLC = tested on: HOP-92 NSCLC
K-562 leukemia = tested on: K-562 leukemia
LOX IMVI melanoma = tested on: LOX IMVI melanoma
MOLT-4 leukemia = tested on: MOLT-4 leukemia
OVCAR-3 ovarian = tested on: OVCAR-3 ovarian
OVCAR-5 ovarian = tested on: OVCAR-5 ovarian
OVCAR-8 ovarian = tested on: OVCAR-8 ovarian
PC-3 prostate = tested on: PC-3 prostate
RPMI-8226 leukemia = tested on: RPMI-8226 leukemia
RXF 393 renal = tested on: RXF 393 renal
SF-295 CNS = tested on: SF-295 CNS
SF-539 CNS = tested on: SF-539 CNS
SK-OV-3 ovarian = tested on: SK-OV-3 ovarian
SNB-19 CNS = tested on: SNB-19 CNS
SNB-75 CNS = tested on: SNB-75 CNS
T-47D breast = tested on: T-47D breast
U251 CNS = tested on: U251 CNS

Structure (SMILES) | TGI (A498 renal) [µM] | TGI (HCT-15 colon) [µM] | TGI (HOP-62 NSCLC) [µM] | TGI (HOP-92 NSCLC) [µM] | TGI (K-562 leukemia) [µM] | TGI (LOX IMVI melanoma) [µM] | TGI (MOLT-4 leukemia) [µM] | TGI (OVCAR-3 ovarian) [µM] | TGI (OVCAR-5 ovarian) [µM] | TGI (OVCAR-8 ovarian) [µM] | TGI (PC-3 prostate) [µM] | TGI (RPMI-8226 leukemia) [µM] | TGI (RXF 393 renal) [µM] | TGI (SF-295 CNS) [µM] | TGI (SF-539 CNS) [µM] | TGI (SK-OV-3 ovarian) [µM] | TGI (SNB-19 CNS) [µM] | TGI (SNB-75 CNS) [µM] | TGI (T-47D breast) [µM] | TGI (U251 CNS) [µM]
Oc1cc(CN2COc3ccccc32)c(O)cc1CNC1CCCCC1 | 49.9 | 47.6 | > 100 | 75.4 | 52.9 | 31.6 | 39.3 | > 100 | > 100 | 57.5 | 42 | 64.5 | 71.8 | > 100 | 34.6 | > 100 | > 100 | 38.9 | 64.7 | 32.5
Cn1c2c3c(F)c(F)ccc3nc-2cc2ccccc21 | 2.89 | 10.7 | 6.92 | 49.1 | > 100 | 5.23 | > 100 | 13.6 | 9.07 | 16.3 | 19.4 | 11.5 | 26.9 | 5.69 | 13.5 | 21.1 | 18.2 | 5.71 | 4.39 | 12.9
CC1OC(O[C@H]2CC[C@]3(C=O)[C@H]4CC[C@]5(C)[C@H](C6=CC(=O)OC6)CC[C@]5(O)[C@@H]4C=C[C@]3(O)C2)CC(O)C1O (stereo not given in full) | 0.611 | 0.62 | 0.503 | 2.62 | 9.01 | 0.652 | 0.3 | 0.583 | 1.42 | 0.754 | 0.657 | 2.37 | 0.193 | 0.489 | 0.488 | 1.02 | 3.25 | 2.31 | 1.27 | 0.694
COC(=O)c1cc(C)n(CN(Cc2ccccc2)Cn2nc(C(=O)OC)cc2C)n1 | > 100 | > 58.2 | > 100 | > 100 | > 100 | > 100 | > 100 | > 100 | > 100 | > 100 | > 100 | > 62.9 | 98 | > 100 | > 68.7 | > 100 | > 100 | > 100 | > 100 | > 100
c1ccc(C2=Nc3cccc4cccc(c34)N2)cc1 | > 100 | > 96.1 | > 100 | 52.7 | > 72.9 | 60 | > 54.8 | 45.2 | > 100 | > 87 | 68 | > 84.6 | 45.6 | > 100 | > 100 | > 100 | > 100 | > 100 | 21.9 | > 100
COc1ccc2c(CCNS(=O)(=O)c3ccccc3)c(C(C)=O)[nH]c2c1 | > 100 | > 100 | > 100 | > 100 | > 100 | > 100 | > 100 | > 100 | > 100 | > 100 | > 100 | > 100 | > 100 | > 100 | > 100 | > 100 | > 100 | > 100 | > 86.8 | > 100
COc1ccc(Nc2nc3ccccc3nc2C(=O)O)cc1OC | 75.1 | > 100 | > 100 | > 100 | > 100 | > 100 | > 100 | > 100 | > 100 | > 100 | > 100 | > 100 | > 100 | > 100 | > 100 | > 100 | > 100 | > 100 | > 100 | > 100
O=C1C(Cl)=C(N2CCN(c3ccccn3)CC2)C(=O)c2ncccc21 | 23.8 | 3.12 | 25.6 | 3.29 | 5.78 | 3.59 | 4.09 | 3.21 | 21.8 | 2.77 | 7.52 | 5.7 | 3.7 | 18.8 | 3.94 | 20.6 | 25 | 19.8 | 3.16 | 15.2
CN(C)c1ccc(C2ON=C(c3ccccc3)N2C23CC4CC(CC(C4)C2)C3)cc1 (stereo not given) | > 10 | > 10 | > 10 | > 10 | > 10 | > 10 | > 10 | > 10 | > 10 | > 10 | > 10 | > 10 | > 10 | > 10 | > 10 | > 10 | > 10 | > 10 | > 10 | > 10
C[C@]12CC/C(=N\OCCN3CCCCC3)C=C1CCC1C2CC[C@@]2(C)C1CC[C@]2(C)O (stereo not given in full) | 15.4 | 27.6 | 43.7 | 26 | 17.9 | 15.7 | 6.84 | 42.8 | 94.4 | 27 | 49.5 | 31.5 | 56.5 | 14.3 | 22.5 | 35 | 30 | 24.8 | 97.2 | 26.6
